Reference: patent US20160303184A1, “VANCOMYCIN-SUGAR CONJUGATES AND USES THEREOF” (JAWAHARLAL NEHRU CENTRE FOR ADVANCED SCIENTIFIC RESEARCH …, priority 2013, published 2016)
Converted amounts (≈) assume the structure as drawn. “Also recorded” adds a separate entry of the source.

Tests used:
[1] = system: Methicillin-resistant S. aureus (ATCC 33591); test: MIC, micro-dilution broth, MRSA; format: cell-based; conditions: Staphylococcus aureus, read-out: MIC MRSA
Experimental: (§1) All test compounds were assayed in a micro-dilution broth format. Stock solutions were made by serially diluting the compounds using autoclaved millipore water or broth media. The antibacterial activity of the compounds was determined against methicillin-sensitive S. aureus (MSSA), methicillin-resistant S. aureus (MRSA), vancomycin-intermediate-resistant S. aureus (VISA), vancomycin-sensitive E. faecium (VSE) and vancomycin-resistant E. faecium (VRE). Bacteria, to be tested, were grown for about 10 h in the suitable media, MSSA, MRSA and VISA were grown in yeast-dextrose broth (about 1 g of beef extract, about 2 g of yeast extract, about 5 g of peptone and about 5 g of NaCl in about 1000 mL of sterile distilled water (pH-7)). For solid media, about 5% agar was used along with above mentioned composition. VSE and VRE were cultured in brain heart infusion broth (Himedia). The bacterial samples were freeze dried and stored at −80° C. About 5 μL of these stocks were added to about 3 mL of the nutrient broth and the culture was grown for about 6 h at about 37° C. prior to the experiments. This 6 h grown culture gives about 10^9 cfu/mL and this was determined by spread plating method. The 6 h grown culture was diluted to give effective cell concentration of about 10^5 cfu/mL which was then used for determining MIC. Compounds were serially diluted, in sterile water (2 fold dilution is employed) in a way that the working concentration was about 10 μM for MSSA, MRSA, and VSE while for VRE and VISA it was about 100 μM. About 50 μL of these serial dilutions were added to the wells of 96 well plate followed by the addition of about 150 μL of bacterial solution. The plates were then incubated at about 37° C., 150 rpm in the incubator and O.D at 600 nm was recorded at an interval of about 10 h and 24 h using TECAN (Infinite series, M200 pro) Plate Reader. Each concentration had triplicate values and the whole experiment was done at least twice and the MIC value was determined by taking the average of triplicate. O. D. values for each concentration and plotting it against concentration. The data was then subjected to sigmoidal fitting. From the curve the MIC value was determined, as the point in the curve where the O. D. was similar to that of control having no bacteria.

[2] = system: Vancomycin-resistant E. faecium (VanA, ATCC 51559); test: MIC, micro-dilution broth, VRE (VanA); format: cell-based
Experimental: as §1

[3] = system: Vancomycin-resistant E. faecalis (VanA, ATCC 51575); test: MIC, micro-dilution broth, VRE (VanB); format: cell-based; conditions: Enterococcus faecalis, read-out: MIC VRE (VanB)
[4] = system: methicillin-resistant S. epidermidis clinical isolate; test: MIC, clinical isolate of methicillin-resistant S. epidermidis; format: cell-based; conditions: Staphylococcus epidermidis, read-out: MIC S. epidermidis
[5] = system: methicillin-resistant S. haemolyticus clinical isolate; test: MIC, clinical isolate of methicillin-resistant S. haemolyticus; format: cell-based; conditions: Staphylococcus haemolyticus, read-out: MIC S. haemolyticus
[6] = system: methicillin-resistant S. aureus clinical isolate; test: MIC, clinical isolate of methicillin-resistant S. aureus; format: cell-based; conditions: Staphylococcus aureus, read-out: MIC S. aureus
Experimental: as §1

VISA [7] = test: Ex-vivo whole blood assay; format: cell-based, S. aureus; conditions: 3 h incubation in 90% human whole blood
Experimental: Ex-vivo whole blood assay was performed to compare the abilities of these compounds to retain activity in complex media. To 30 μL of VISA in saline (0.9% NaCl; 10^6 CFU/mL) 10 μL of test compounds (vancomycin and compound 7) and 270 μL of fresh human whole blood were added and incubated, at 37° C. for about 3 h. After the incubation period, antibacterial activity was determined by finding the bacterial titer in the infected blood.

VISA [8] = test: In-vivo time dependent whole blood assay; design: species or system S. aureus; conditions: 12 mg/kg single i.v., CD-1 mice
Experimental: The derivative 7 and vancomycin were administered in a single intravenous injection (0.2 mL saline) to normal pathogen-free, female CD-1 mice. Doses of 12 mg kg^−1 were administered to three mice per data point. At the specified time-points (0, 3, 6, 12, 24 and 48 h) mice were euthanized (using ether), blood samples were collected from the ocular puncture. 60 μL of VISA in saline (0.9% NaCl; 10^6 CFU/mL) was added to 540 μL of whole blood which was drawn from the mice and incubated at 37° C. for 3 h. After the incubation period, antibacterial activity was determined by finding the bacterial titer in the infected blood.

[9] = Acute toxicity (blood biochemistry, liver and kidney histology); format: in vivo, mice; conditions: 12 mg/kg i.v.
Experimental: For the evaluation of the acute toxicity, two groups of 10 mice each received intravenous injection of compound 7 at 12 mg/kg in 0.2 ml of sterilized saline. 10 mice were sacrificed at 48 h and the rest mice at 14 days to collect blood samples for analysis of biochemical parameters such as alanine transaminase (ALT), alkaline phosphatase (ALP), urea nitrogen, creatinine, sodium ion, potassium ion and chloride ion levels. Blood samples were analyzed at Gokula Metropolis clinical laboratory, Bengaluru, India. And also to examine the adverse effects of compound 7 in tissue level, we have isolated liver and kidney organs in 10% neutral formalin. Tissues were processed by dehydration in ascending grades of ethyl alcohol, clearing in xylol, embedding in paraffin wax and prepared sections of 5 μm thickness. Then paraffin sections were stained using haematoxylin and eosin, and observed under light microscope for histological changes.

CCCCCCCCCCN[C@]1(C)C[C@H](OC2C(O)[C@@H](O)C(CO)O[C@@H]2Oc2c3cc4cc2Oc2ccc(cc2Cl)[C@@H](O)[C@@H](NC(=O)[C@@H](CC(C)C)NC)C(=O)N[C@@H](CC(N)=O)C(=O)N[C@H]4C(=O)N[C@H]2C(=O)N[C@H](C(=O)N[C@H](C(=O)NCCCNC(=O)[C@H](O)[C@@H](O)[C@H](OC4OC(CO)C(O)C(O)[C@H]4O)[C@H](O)CO)c4cc(O)cc(O)c4-c4cc2ccc4O)[C@H](O)c2ccc(c(Cl)c2)O3)OC(C)[C@@H]1O (stereo partly drawn) [Compound 7]
MIC [1]: 0.3 µM (≈ 0.596 µg/mL)
MIC ([2]; Enterococcus faecium, read-out: MIC VRE (VanA)): 1 µM (≈ 1.99 µg/mL)
fold higher activity than vancomycin ([2]; VRE (VanA phenotype)): > 700 fold
MIC [3]: 1 µM (≈ 1.99 µg/mL)
MIC [4]: 0.3 µM (≈ 0.596 µg/mL)
MIC [5]: 0.41 µM (≈ 0.814 µg/mL)
MIC [6]: 0.3 µM (≈ 0.596 µg/mL)
bactericidal activity in whole blood (VISA [7]): rapid bactericidal activity
CFU/mL reduction (VISA [8]; blood drawn up to 24 h, VISA): 3 log10 CFU/mL
time after dosing up to which blood showed antibacterial activity (VISA [8]; blood incubated with VISA 3 h): 24 h
acute damage to liver and kidney functions ([9]; 48 h and 14 days): did not cause any significant acute damage; also recorded: no significant acute damage
Chloride ion ([9]; 48 h post-treatment): 112.9 ± 1.52 mmol/L
Kidney Creatinine ([9]; 48 h post-treatment): 0.2 ± 0.133 mg/dL
Liver ALT ([9]; 48 h post-treatment): 55.23 ± 5.24 U L^−1
Potassium ion ([9]; 48 h post-treatment): 6.86 ± 0.81 mmol/L
Sodium ion ([9]; 48 h post-treatment): 143.63 ± 1.65 mmol/L
Urea Nitrogen ([9]; 48 h post-treatment): 19.52 ± 3.25 mg/dL
Chloride ion ([9]; 14 days post treatment): 110.85 ± 2.16 mmol/L
Kidney Creatinine ([9]; 14 days post treatment): 0.22 ± 0.1 mg/dL
Liver ALT ([9]; 14 days post treatment): 53.28 ± 3.78 U L^−1
Potassium ion ([9]; 14 days post treatment): 6.75 ± 0.833 mmol/L
Sodium ion ([9]; 14 days post treatment): 143.04 ± 0.71 mmol/L
Urea Nitrogen ([9]; 14 days post treatment): 24.46 ± 4.93 mg/dL
gross anatomical and histopathological examination of liver and kidney sections ([9]; compared to control): no significant changes
